Source: PubChem BioAssay (NCI)
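Test compounds were applied to cells in 96-well plates for 48 hours at 5 doses. TGI: concentration producing complete growth inhibition.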

Legend:
Experiment in all cases: NCI tumour cell line growth inhibition, 48 h
UACC-257 melanoma = tested on: UACC-257 melanoma
NCI-H522 lung = tested on: NCI-H522 lung
ACHN renal = tested on: ACHN renal
NCI/ADR-RES ovarian = tested on: NCI/ADR-RES ovarian
SR leukemia = tested on: SR leukemia
COLO 205 colon = tested on: COLO 205 colon
PC-3 prostate = tested on: PC-3 prostate
CCRF-CEM leukemia = tested on: CCRF-CEM leukemia
DU-145 prostate = tested on: DU-145 prostate
A549 NSCLC = tested on: A549 NSCLC
MDA-MB-435 = tested on: MDA-MB-435
MCF7 breast = tested on: MCF7 breast
NCI-H226 lung = tested on: NCI-H226 lung
MOLT-4 leukemia = tested on: MOLT-4 leukemia
SNB-75 CNS = tested on: SNB-75 CNS
UO-31 renal = tested on: UO-31 renal
NCI-H23 lung = tested on: NCI-H23 lung
MDA-N = tested on: MDA-N
SF-295 CNS = tested on: SF-295 CNS
MDA-MB-231 breast = tested on: MDA-MB-231 breast
HCT-15 colon = tested on: HCT-15 colon
HCC-2998 colon = tested on: HCC-2998 colon
KM12 colon = tested on: KM12 colon
SK-MEL-5 melanoma = tested on: SK-MEL-5 melanoma
SW-620 colon = tested on: SW-620 colon
K-562 leukemia = tested on: K-562 leukemia
RXF 393 renal = tested on: RXF 393 renal
SK-OV-3 ovarian = tested on: SK-OV-3 ovarian
A498 renal = tested on: A498 renal
HOP-92 NSCLC = tested on: HOP-92 NSCLC
HT29 colon = tested on: HT29 colon
M14 melanoma = tested on: M14 melanoma
SK-MEL-28 melanoma = tested on: SK-MEL-28 melanoma
U251 CNS = tested on: U251 CNS
HL-60(TB) leukemia = tested on: HL-60(TB) leukemia
T-47D breast = tested on: T-47D breast
OVCAR-4 ovarian = tested on: OVCAR-4 ovarian
LOX IMVI melanoma = tested on: LOX IMVI melanoma
SN12C renal = tested on: SN12C renal
NCI-H460 lung = tested on: NCI-H460 lung
TK-10 renal = tested on: TK-10 renal
OVCAR-8 ovarian = tested on: OVCAR-8 ovarian
HCT-116 colon = tested on: HCT-116 colon
SNB-19 CNS = tested on: SNB-19 CNS
OVCAR-3 ovarian = tested on: OVCAR-3 ovarian
SF-268 CNS = tested on: SF-268 CNS
HS 578T breast = tested on: HS 578T breast
OVCAR-5 ovarian = tested on: OVCAR-5 ovarian
UACC-62 melanoma = tested on: UACC-62 melanoma
SK-MEL-2 melanoma = tested on: SK-MEL-2 melanoma
MALME-3M melanoma = tested on: MALME-3M melanoma
IGROV1 ovarian = tested on: IGROV1 ovarian
CAKI-1 renal = tested on: CAKI-1 renal
RPMI-8226 leukemia = tested on: RPMI-8226 leukemia
SF-539 CNS = tested on: SF-539 CNS
HOP-62 NSCLC = tested on: HOP-62 NSCLC
EKVX NSCLC = tested on: EKVX NSCLC

## Cc1ccc(S(=O)(=O)NCCCSCCSCCCN)cc1
UACC-257 melanoma
  TGI: > 100 µM
NCI-H522 lung
  TGI: > 100 µM
ACHN renal
  TGI: > 100 µM
NCI/ADR-RES ovarian
  TGI: > 100 µM
SR leukemia
  TGI: > 100 µM
COLO 205 colon
  TGI: > 100 µM
PC-3 prostate
  TGI: > 100 µM
CCRF-CEM leukemia
  TGI: > 100 µM
DU-145 prostate
  TGI: > 100 µM
A549 NSCLC
  TGI: > 100 µM
MDA-MB-435
  TGI: > 100 µM
MCF7 breast
  TGI: > 100 µM
NCI-H226 lung
  TGI: > 100 µM
MOLT-4 leukemia
  TGI: > 100 µM
SNB-75 CNS
  TGI: > 100 µM
UO-31 renal
  TGI: > 100 µM
NCI-H23 lung
  TGI: > 100 µM
MDA-N
  TGI: > 100 µM
SF-295 CNS
  TGI: > 100 µM
MDA-MB-231 breast
  TGI: > 100 µM
HCT-15 colon
  TGI: > 100 µM
HCC-2998 colon
  TGI: > 100 µM
KM12 colon
  TGI: > 100 µM
SK-MEL-5 melanoma
  TGI: > 100 µM
SW-620 colon
  TGI: > 100 µM
K-562 leukemia
  TGI: > 100 µM
RXF 393 renal
  TGI: > 100 µM
SK-OV-3 ovarian
  TGI: > 100 µM
A498 renal
  TGI: > 100 µM
HOP-92 NSCLC
  TGI: > 100 µM
HT29 colon
  TGI: > 100 µM
M14 melanoma
  TGI: > 100 µM
SK-MEL-28 melanoma
  TGI: > 100 µM
U251 CNS
  TGI: > 100 µM
HL-60(TB) leukemia
  TGI: > 100 µM
T-47D breast
  TGI: > 100 µM
OVCAR-4 ovarian
  TGI: > 100 µM
LOX IMVI melanoma
  TGI: > 100 µM
SN12C renal
  TGI: > 100 µM
NCI-H460 lung
  TGI: > 100 µM
TK-10 renal
  TGI: > 100 µM
OVCAR-8 ovarian
  TGI: > 100 µM
HCT-116 colon
  TGI: > 100 µM
SNB-19 CNS
  TGI: > 100 µM
OVCAR-3 ovarian
  TGI: > 100 µM
SF-268 CNS
  TGI: > 100 µM
HS 578T breast
  TGI: > 100 µM

## CCN(CC)CCN(C(=O)c1ccc(F)cc1)c1ccccc1N
NCI-H522 lung
  TGI: > 10 µM
ACHN renal
  TGI: > 10 µM
OVCAR-5 ovarian
  TGI: > 10 µM
NCI/ADR-RES ovarian
  TGI: > 10 µM
SR leukemia
  TGI: > 10 µM
COLO 205 colon
  TGI: > 10 µM
UACC-62 melanoma
  TGI: > 10 µM
SK-MEL-2 melanoma
  TGI: > 10 µM
PC-3 prostate
  TGI: > 10 µM
CCRF-CEM leukemia
  TGI: > 10 µM
DU-145 prostate
  TGI: > 10 µM
MALME-3M melanoma
  TGI: > 10 µM
A549 NSCLC
  TGI: > 10 µM
MDA-MB-435
  TGI: > 10 µM
MCF7 breast
  TGI: > 10 µM
NCI-H226 lung
  TGI: > 10 µM
MOLT-4 leukemia
  TGI: > 10 µM
SNB-75 CNS
  TGI: > 10 µM
UO-31 renal
  TGI: > 10 µM
NCI-H23 lung
  TGI: > 10 µM
MDA-N
  TGI: > 10 µM
SF-295 CNS
  TGI: > 10 µM
MDA-MB-231 breast
  TGI: > 10 µM
HCT-15 colon
  TGI: > 10 µM
HCC-2998 colon
  TGI: > 10 µM
KM12 colon
  TGI: > 10 µM
SK-MEL-5 melanoma
  TGI: > 10 µM
SW-620 colon
  TGI: > 10 µM
IGROV1 ovarian
  TGI: > 10 µM
K-562 leukemia
  TGI: > 10 µM
CAKI-1 renal
  TGI: > 10 µM
RXF 393 renal
  TGI: > 10 µM
SK-OV-3 ovarian
  TGI: > 10 µM
A498 renal
  TGI: > 10 µM
RPMI-8226 leukemia
  TGI: > 10 µM
HT29 colon
  TGI: > 10 µM
M14 melanoma
  TGI: > 10 µM
SK-MEL-28 melanoma
  TGI: > 10 µM
U251 CNS
  TGI: > 10 µM
HL-60(TB) leukemia
  TGI: > 10 µM
T-47D breast
  TGI: > 10 µM
OVCAR-4 ovarian
  TGI: > 10 µM
LOX IMVI melanoma
  TGI: > 10 µM
SN12C renal
  TGI: > 10 µM
NCI-H460 lung
  TGI: > 10 µM
SF-539 CNS
  TGI: > 10 µM
TK-10 renal
  TGI: > 10 µM
OVCAR-8 ovarian
  TGI: > 10 µM
HCT-116 colon
  TGI: > 10 µM
SNB-19 CNS
  TGI: > 10 µM
OVCAR-3 ovarian
  TGI: > 10 µM
HOP-62 NSCLC
  TGI: > 10 µM
SF-268 CNS
  TGI: > 10 µM
HS 578T breast
  TGI: > 10 µM
EKVX NSCLC
  TGI: > 10 µM
